Patent US5324502A, “Radiopharmaceuticals for imaging the heart” (priority 1992, dated 1994)
Read-outs that look alike come from different tables or passages of the source.

Columns and labels:
[1] = Octanol/water partition coefficient of radiolabeled gallium complexes; assay type: physicochemical; details: octanol/tris buffer, pH 7
Description: Octanol/water partition coefficients were measured by vortex mixing 1 mL of 1-octanol and 1 mL of isotonic Tris buffer (pH 7.0) with a 1-5 μL sample of the radiolabeled gallium complex. Following centrifugation at >1200 g for 5 minutes, the octanol and aqueous phases were sampled and counted in an automatic well counter.

[2] = rat, in vivo, iv
Outline: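 Male Sprague-Dawley rats under ether anesthesia received 1 to 3 μCi of no-carrier-added Ga-67 complex as a femoral-vein bolus. Animals were killed at set times post-injection; organs weighed and counted. Values given as % injected dose per gram and per organ.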

[3] = PET imaging of the heart with the 68Ga complex; details: dog, 20 mCi bolus i.v.
Description: The dog was placed in a plexiglass holder and positioned within the PET VI camera, a positron emission tomograph that permits simultaneous acquisition of seven transverse tomographic slices with a slice-to-slice separation of 1.44 cm, a slice thickness of 1.39 cm, and a reconstructed resolution of 12.0 mm (full width at half maximum). A transmission scan, necessary for attenuation correction, was obtained using an external ring of ^68 Ge/^68 Ga. A ^15 O-myocardial perfusion image was then obtained for reference employing ^15 O-water and ^15 O-carbon monoxide in a standard PET protocol. After decay of the ^15 O activity to background levels, the ^68 Ga-bis(4,6-dimethoxysalicylaldimino)-N,N'-bis(aminopropyl) ethylene-diamine radiopharmaceutical (20 mCi) was administered to the dog as a bolus intravenous injection. Dynamic PET data was collected for ten 1 minute frames commencing at the time of ^68 Ga injection, followed by eight consecutive 10 minute static images. PET images of the chest were reconstructed from each of the ten one minute frames and each of the eight 10 minute frames. […] Regions-of-interest were defined in the ^68 Ga images allowing quantitative determination of regional myocardial tissue concentrations of tracer.

Question: Which results are given for COc1ccc(C=NCCCNCCNCCCN=Cc2ccc(OC)cc2[O-])c([O-])c1.[67Ga+3] [(4-MeOSal)2 BAPEN, ^67 GaL^+ L = [bis(4-methoxysalicylaldimino)-N,N'-bis(3-aminopropyl)-ethylenediamine]]?
Answer: log P [1]: 0.80; % injected dose in heart, 1 min [2]: 0.67 ± 0.08 % injected dose; % injected dose in heart, 2 h [2]: 0.65 ± 0.05 % injected dose; % Injected Dose per Gram Tissue, Blood ([2]; 1 min): 0.32 ± 0.02; % Injected Dose per Gram Tissue, Brain ([2]; 1 min): 0.02 ± 0.01; % Injected Dose per Gram Tissue, Heart ([2]; 1 min): 0.96 ± 0.07; % Injected Dose per Gram Tissue, Kidney (one) ([2]; 1 min): 11.08 ± 0.88; % Injected Dose per Gram Tissue, Liver ([2]; 1 min): 3.05 ± 0.27; % Injected Dose per Gram Tissue, Lungs ([2]; 1 min): 0.91 ± 0.09; % Injected Dose per Gram Tissue, Spleen ([2]; 1 min): 0.31 ± 0.05; Heart/Blood ([2]; 1 min): 2.99 ± 0.15; % Injected Dose per Gram Tissue, Blood ([2]; 2 h): 0.03 ± 0.01; % Injected Dose per Gram Tissue, Brain ([2]; 2 h): 0.01 ± 0.003; % Injected Dose per Gram Tissue, Heart ([2]; 2 h): 0.92 ± 0.07; % Injected Dose per Gram Tissue, Kidney (one) ([2]; 2 h): 2.19 ± 0.08; % Injected Dose per Gram Tissue, Liver ([2]; 2 h): 0.63 ± 0.20; % Injected Dose per Gram Tissue, Lungs ([2]; 2 h): 0.32 ± 0.02; % Injected Dose per Gram Tissue, Spleen ([2]; 2 h): 0.17 ± 0.03; Heart/Blood ([2]; 2 h): 30.58 ± 2.22; % Injected Dose per Gram Tissue, Blood ([2]; […]): 0.06 ± 0.01; % Injected Dose per Gram Tissue, Brain ([2]; […]): 0.01 ± 0.001; % Injected Dose per Gram Tissue, Heart ([2]; […]): 1.01 ± 0.08; % Injected Dose per Gram Tissue, Kidney (one) ([2]; […]): 4.47 ± 0.62; % Injected Dose per Gram Tissue, Liver ([2]; […]): 1.71 ± 0.40; % Injected Dose per Gram Tissue, Lungs ([2]; […]): 0.38 ± 0.05; % Injected Dose per Gram Tissue, Spleen ([2]; […]): 0.22 ± 0.02; Heart/Blood ([2]; […]): 17.62 ± 0.31

Question: With COc1cc([O-])c(C=NCCCNCCNCCCN=Cc2c([O-])cc(OC)cc2OC)c(OC)c1.[68Ga+3] [^68 Ga-bis(4,6-dimethoxysalicylaldimino)-N,N'-bis(aminopropyl)ethylenediamine] as the compound, how does the “clearance of myocardial ^68 Ga radioactivity” value ([3]; 90 minute imaging period) read?
Answer: No clearance of myocardial ^68 Ga radioactivity was observed

Question: And the “delineation of the heart in ^68 Ga PET images” value ([3]; beyond 20 minutes post-injection)?
Answer: the heart was clearly delineated in the ^68 Ga-images with good heart-to-blood and heart-to-lung contrast
